Values quoted from earlier work in patent publication US20230149377A1, “PHARMACEUTICAL METHODS” (ELEVAR THERAPEUTICS, INC., priority 2018, published 2023).
Structures can show the parent of a compound that is named as a salt.

Assays:
[1] = observed safety issues, approved drugs
[2] = single dose
[3] = Phase 1, 46 patients
VEGFR-2 = VEGFR-2 (Homo sapiens, UniProt P35968); conditions: nonclinical
[4] = test system: tumor bearing animal models
[5] = 81 mg rivoceranib dose (100 mg mesylate), healthy volunteers
gastric cancer = conditions: Phase 3

Sequence of VEGFR-2 (P35968 20-1356, species assumed): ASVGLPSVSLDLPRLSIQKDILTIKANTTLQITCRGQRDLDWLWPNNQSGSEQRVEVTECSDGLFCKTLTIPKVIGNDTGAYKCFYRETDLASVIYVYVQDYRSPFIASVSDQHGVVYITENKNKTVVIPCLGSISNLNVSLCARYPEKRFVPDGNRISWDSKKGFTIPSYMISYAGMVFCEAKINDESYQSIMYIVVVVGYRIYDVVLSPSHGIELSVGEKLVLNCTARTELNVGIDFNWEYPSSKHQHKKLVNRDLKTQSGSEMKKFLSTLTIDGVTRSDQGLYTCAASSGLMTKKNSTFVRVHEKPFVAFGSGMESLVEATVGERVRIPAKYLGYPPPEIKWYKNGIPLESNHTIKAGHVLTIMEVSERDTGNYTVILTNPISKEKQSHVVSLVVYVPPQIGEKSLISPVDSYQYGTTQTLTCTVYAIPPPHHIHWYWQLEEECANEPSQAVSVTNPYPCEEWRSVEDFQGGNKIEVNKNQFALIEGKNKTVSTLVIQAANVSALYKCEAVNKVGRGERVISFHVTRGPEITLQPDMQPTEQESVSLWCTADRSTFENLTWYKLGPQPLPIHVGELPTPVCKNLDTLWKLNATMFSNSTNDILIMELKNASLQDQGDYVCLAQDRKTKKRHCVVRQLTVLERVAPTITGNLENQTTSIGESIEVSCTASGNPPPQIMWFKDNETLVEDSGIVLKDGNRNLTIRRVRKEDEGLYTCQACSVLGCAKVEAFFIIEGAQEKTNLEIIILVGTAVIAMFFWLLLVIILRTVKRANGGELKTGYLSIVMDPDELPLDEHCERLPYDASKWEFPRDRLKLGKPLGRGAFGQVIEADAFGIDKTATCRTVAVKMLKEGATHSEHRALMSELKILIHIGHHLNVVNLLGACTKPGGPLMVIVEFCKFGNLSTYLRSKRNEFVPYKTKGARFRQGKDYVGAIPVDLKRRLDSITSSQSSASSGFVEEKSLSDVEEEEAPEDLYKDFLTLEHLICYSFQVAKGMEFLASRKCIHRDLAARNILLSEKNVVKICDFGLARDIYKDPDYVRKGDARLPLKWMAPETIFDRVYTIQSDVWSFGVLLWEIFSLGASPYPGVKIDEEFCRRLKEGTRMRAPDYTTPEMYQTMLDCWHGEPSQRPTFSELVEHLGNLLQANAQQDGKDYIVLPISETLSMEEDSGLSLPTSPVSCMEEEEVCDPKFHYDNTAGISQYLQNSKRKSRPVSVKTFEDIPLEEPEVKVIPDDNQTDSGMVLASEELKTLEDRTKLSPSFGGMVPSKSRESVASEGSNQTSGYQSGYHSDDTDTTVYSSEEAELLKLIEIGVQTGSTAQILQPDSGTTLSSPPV

SMILES | Safety Profile: Central nervous system [1] | Safety Profile: Liver/Bile [1] | Safety Profile: Musculoskeletal/bone [1] | Safety Profile: Renal [1] | Safety Profile: Heart [1] | also measured
Cc1nc(Nc2ncc(C(=O)Nc3c(C)cccc3Cl)s2)cc(N2CCN(CCO)CC2)n1 [Dasatinib] | R | R | R | R |  | 
C#Cc1cccc(Nc2ncnc3cc(OCCOC)c(OCCOC)cc23)c1 [Erlotinib] | R | R |  |  |  | Safety Profile: Blood/lymph system [1]: R
CS(=O)(=O)CCNCc1ccc(-c2ccc3ncnc(Nc4ccc(OCc5cccc(F)c5)c(Cl)c4)c3c2)o1 [Lapatinib] | R |  |  |  | R | 
Cc1cn(-c2cc(NC(=O)c3ccc(C)c(Nc4nccc(-c5cccnc5)n4)c3)cc(C(F)(F)F)c2)cn1 [Nilotinib] | R |  | R | R |  | Safety Profile: GI [1]: R; Safety Profile: Vascular [1]: R
Cc1ccc(Nc2nccc(N(C)c3ccc4c(C)n(C)nc4c3)n2)cc1S(N)(=O)=O [Pazopanib] |  |  |  |  | R | 
CNC(=O)c1cc(Oc2ccc(NC(=O)Nc3ccc(Cl)c(C(F)(F)F)c3)cc2)ccn1 [Sorafenib] | R | R | R | R | R | Safety Profile: GI [1]: R; Safety Profile: Lung airways [1]: R
CCN(CC)CCNC(=O)c1c(C)[nH]c(/C=C2\C(=O)Nc3ccc(F)cc32)c1C [Sunitinib] | R | R |  |  | R | 
N#CC1(c2ccc(NC(=O)c3cccnc3NCc3ccncc3)cc2)CCCC1 [rivoceranib mesylate] |  |  |  |  |  | AUC0-∞ in Chinese and Japanese subjects compared to Caucasian subjects ([2]; healthy male): slightly higher; Cmax in Chinese and Japanese subjects compared to Caucasian subjects ([2]; healthy male): slightly higher; t1/2 ([2]; similar amongst Caucasian, Japanese and Chinese groups): 7.5 to 8 h; maximum tolerated dose [3]: 850 mg
N#CC1(c2ccc(NC(=O)c3cccnc3NCc3ccncc3)cc2)CCCC1 [rivoceranib, N-[4-(1-cyanocyclopentyl)phenyl]-2-{[(pyridin-4-yl)methyl]amino} pyridine-3-carboxamide] |  |  |  |  |  | binding to VEGFR-2 (VEGFR-2): selectively binds; side effects in animals ([4]; at efficacious doses): minimal side effects; efficacy in various tumor bearing animal models ([4]; nonclinical): efficacious; Food effects on the bioavailability [5]: minimal; Grade 3/4 adverse reactions that occurred in more than 2% of patients (gastric cancer): hypertension, HFS, proteinuria, fatigue, anorexia, and elevated aminotransferase; median overall survival (OS) compared to placebo (gastric cancer): prolonged; median progression-free survival (PFS) compared to placebo (gastric cancer): prolonged
